Entries after “also recorded” stand apart in the source; their conditions may differ.
Legend:
[1] = test system: neuropathic rats; experiment: Sleep fragmentation analysis (Sleep Fragmentation Index); assay type: in vivo, male Wistar rats; conditions: NP rats; CBD 20 mg/kg i.p.; vs NP+VEH
Protocol: Sleep fragmentation analysis. Sleep Fragmentation Index (SFI) is determinant of excessive daytime sleepiness as it is characterized by repetitive short interruptions of sleep by periods of wakefulness. […] In this study, SFI is calculated as the total number of wakefulness episodes in 24 h divided by the total sleep time in hours during 24 h (REM+NREM).

[2] = test system: naïve animals; conditions: cited from earlier work
[3] = test system: rats; conditions: cited from earlier work
[4] = test system: healthy rats; conditions: intracerebroventricular injection 10 μg/5 μL; cited from earlier work
[5] = test system: neuropathic rats; experiment: EEG power spectra (delta, theta, sigma bands) during NREM and REM sleep; assay type: in vivo, male Wistar rats
Protocol: EEG and EMG recording. Six days after surgery (16 days post-SNI), mechanical allodynia was assessed via von Frey test, and EEG/EMG was recorded for a period of 6 h (from 6 AM to 12 PM). The treatments (described below) were performed at 6:00 A.M., right after the recording had started. […] Consecutive 10 s epochs were subjected to a fast Fourier transform (FFT), and EEG power spectra density was computed in the frequency range of 0-64 Hz^13.
To determine the variations in power spectra induced by the pharmacological treatment of CBD and antagonists, the power densities were summed up over the frequency band of 0-25 Hz (total power). The data were then standardized by expressing all power spectral densities at the different 0.5 Hz bin frequency ranges (delta, theta, and sigma) as a percentage relative to the total power of the same epoch^16. Frequency ranges were 0-3.5Hz for delta, 4-8.5Hz for theta, and 11-14 Hz for sigma bands. The sum of power densities over a frequency band following treatments were expressed as the percentage difference from that in or naïve+veh or NP+vehicle group in statistical analysis. In the experiments with WAY 100635 the NP+CBD was compared with NP+vehicle, NP+WAY, NP+WAY+CBD.
To assess whether CBD (20 mg/kg) might affect the microarchitecture during the sleep, the intensity Delta (0.5-4 Hz), Theta ([…]) and Sigma (10-15 Hz) waves were measured during 6 hours of light phase in the 3 groups of rats (Naïve, SNI+VEH and SNI+CBD 20mg/kg). Data were converted as a percentage of variation vs. naive animals and One-way ANOVA was performed on the power of delta, theta and sigma waves during NREM and REN sleep.
To assess whether the 5-HT1A selective antagonist WAY 100635 (2 mg/kg) might reverse the effect of CBD (20 mg/kg) in the enhancement of power density (Delta, Theta, and Sigma waves) during sleep, the power spectra were measured for 6 hours in four groups of rats. The first group were NP rats treated with CBD vehicle (n=8), the second group were NP rats treated with WAY 100635 alone at 2 mg/kg (n=6), the third group were NP rats treated with WAY 100635 (2 mg/kg)+CBD (20 mg/kg; n=6), and the fourth group were NP treated with CBD at 20 mg/kg (n=8). Data were converted as a percentage of variation vs NP animals treated with vehicle.

[6] = test system: rats with SNI; experiment: Mechanical allodynia (von Frey test) after spared nerve injury; assay type: in vivo, male Wistar rats
Protocol: Animals. The experiments were performed on male Wistar rats weighing 250 g (six weeks). All animals were housed in standardized animal facilities under a 12 h light/dark cycle (lights on at 7 AM) with ad libitum access to food and water. All surgeries and experimental procedures were performed during the light cycle. Experimental protocols were approved by the Animal Ethics Committee of the local institutional committee for animal use and care (McGill University, Qc, Canada). These protocols follow ethical guidelines for investigation of experimental pain in conscious animals of the IASP, the Canadian Institute of Health Research guidelines for animal care and scientific use.
Spared nerve injury (SNI). SNI was performed according to the method of Decosterd and Woolf^35. Rats were deeply anaesthetized with isofluorane (5%), anaesthesia was confirmed by the absence of a nociceptive reflex reaction to a paw pinch. The sciatic nerve was exposed at mid-thigh level distal to the trifurcation and freed of connective tissue; the three peripheral branches (sural, common peroneal, and tibial nerves) of the sciatic nerve were exposed without stretching nerve structures. Both tibial and common peroneal nerves were ligated and transected together. Carprofen (5 mg/kg) was administrated subcutaneously pre-surgery as well as three days every 24 hours post-surgery as analgesic. After SNI, each rat was housed in its home cage for 15 days until the neuropathy is developed.
Mechanical allodynia. On day 15 after SNI, mechanical allodynia was assessed via von Frey test^38. Rats were placed in a test chamber, and they were allowed to acclimate for 60 minutes. Tactile allodynia was determined by measuring paw withdrawal thresholds in response to mid-plantar hind paw stimuli with Calibrated von Frey filaments^36. These filaments are of a logarithmically incremental stiffness corresponding to an applied force ranging from 0.4 to 15 g. Every filament was applied during 10 seconds in the hind paw to measure the withdrawal threshold. The 2.0 g force filament was applied first; in the presence of a response, the next smaller filament was applied. In the absence of a response, the next higher filament was applied. After the first change in response, the test continued until six responses were collected. The paw withdrawal threshold was then converted to the cutaneous nociceptive threshold by using the “up-down” method^39. The stimulus intensity (filament stiffness) required to produce a response in 50% of the applications for each animal was defined as 50% withdrawal threshold (expressed in g). The 50% withdrawal threshold was determined according to the following equation: 50% Threshold (g)=(10^ [Xf+kδ])/10,000. Where Xf is the value of the last von Frey filament used (in logarithmic units), k is the correction factor based on the response patterns of a calibration table and the tabulated value based on the pattern of positive and negative responses, and δ indicates the average differences between stimuli in logarithmic units^38,39. In non-lesioned animals (naïve) a value 11.98-15 g was considered normal, while the presence of allodynia was considered when the 50% withdrawal threshold of the limb is less than 4 g. All nerve-ligated rats were verified to be allodynic before the experiments. Rats without allodynia were excluded.

[7] = naïve animals, acute systemic 20 mg/kg

## C=C(C)[C@@H]1CCC(C)=C[C@H]1c1c(O)cc(CCCCC)cc1O [CBD, 2-[(1R,6R)-3-methyl-6-prop-1-en-2-ylcyclohex-2-en-1-yl]-5-pentylbenzene-1,3-diol]
[1]
  sleep fragmentation (sleep fragmentation index, SFI): decrease of the sleep fragment index (SFI) to normal levels; also recorded: attenuates the sleep fragmentation
[2]; [7]
  sleep duration and sleep parameters: no significant effect
  slow-wave sleep (SWS) latency: reduced slow-wave sleep (SWS) latency
[2]; single doses of 40 mg/kg
  REM sleep: without affecting REM sleep
  SWS: increased SWS
  SWS latency: decreased SWS latency
[3]; CBD dose of 40 mg/kg
  increase in SWS duration: not statistically significant
[3]; CBD doses of 10 and 40 mg/kg
  total percentage of sleep: significantly increased
[4]
  REM sleep: decrease in REM sleep
  wakefulness: increase in wakefulness
[5]; 6 h, CBD 20 mg/kg
  power of Sigma waves during REM sleep, relative to NP rats treated with vehicle: no statistically significant differences between groups; also recorded: no differences were found
  power of Theta waves during REM sleep, relative to NP animals treated with vehicle: no statistically significant differences between groups
[5]; 6 h, CBD 20 mg/kg i.p.
  power of theta waves during NREM sleep, relative to NP animals treated with vehicle: increases the intensity of the Theta waves; also recorded: increase in the theta power
[5]; 6 h, CBD 20 mg/kg, WAY 100635 2 mg/kg
  Sigma waves during NREM sleep, relative to NP rats treated with vehicle: no significant main effects; also recorded: did not detect differences
[5]; 6 h light phase, CBD 20 mg/kg i.p.
  power of Delta waves during NREM sleep, relative to NP rats treated with vehicle: increase in the intensity of the power of Delta waves
[5]; NP rats, 6 h, CBD 20 mg/kg, WAY 100635 2 mg/kg
  power of Delta waves during REM sleep, between groups (ANOVA): no statistically significant differences between groups
[6]; 10 mg/kg vs 20 mg/kg
  AUC of the antiallodynic effect: not statistically different
[6]; 20 mg/kg group vs CBD 5 mg/kg (p<0.001) and vs vehicle (p<0.001)
  AUC of the antiallodynic effect: significantly higher
[6]; SNI rats, 5 mg/kg i.p.
  antiallodynic effect: did not show any antiallodynic effect
[6]; SNI rats, 10 mg/kg i.p., between 2 h and 4.5 h (p<0.05)
  reversal of mechanical allodynia: able to reverse mechanical allodynia
[6]; SNI rats, 20 mg/kg i.p., between 1 h and 5 h (p<0.05)
  reversal of mechanical allodynia: able to reverse mechanical allodynia
[6]; SNI rats, CBD 5, 10 and 20 mg/kg intraperitoneally, 0.5-7.5 hours, vs vehicle
  paw withdrawal threshold / mechanical allodynia, dose dependence: increasing the paw withdrawal threshold in a dose-dependent manner; also recorded: reduces mechanical allodynia in a dose-dependent manner; also recorded: reduces neuropathic pain
[6]; SNI rats, CBD i.p.
  duration of antiallodynic effects post-administration: up to 4 hours

From patent US20230172874A1, “USE OF CANNABIDIOL FOR THE TREATMENT OF INSOMNIA ASSOCIATED TO PAIN” (priority 2021, published 2023)
